Results: the supplement of paper PMC8882468

System: HCI-002 (organoid from a triple-negative breast cancer xenograft)
Assay: CTG-3D luminescence at 96 h relative to day-0 seeding control (ratio to day 0); higher = more growth / less cytotoxicity; PDxO 3D drug screen, 96 h, CTG-3D normalised to day-0 seeding control.
Details: 10 µM; days in culture: 62

Row | Structure (SMILES) | CTG-3D luminescence at 96 h
1 | CC(C)(C(=O)NCC(F)(F)C(F)(F)F)C(=O)N[C@@H]1C(=O)Nc2ccccc2-c2ccccc21 | 3.01
2 | CCN(c1cc(C#CCN2CCOCC2)cc(C(=O)NCc2c(C)cc(C)[nH]c2=O)c1C)[C@H]1CC[C@H](N(C)CCOC)CC1 | 3.56
3 | NC(=O)Nc1cc(-c2cccc(F)c2)sc1C(=O)N[C@H]1CCCNC1 [AZD7762] | 0.539
4 | O=C(/C=C/c1cccnc1)NCCCCC1CCN(C(=O)c2ccccc2)CC1 [FK866] | 0.014
5 | CCc1c2c(nc3ccc(O)cc13)-c1cc3c(c(=O)n1C2)COC(=O)[C@]3(O)CC [SN-38] | 0.0334
6 | CCN1CCN(Cc2ccc(Nc3ncc(F)c(-c4cc(F)c5nc(C)n(C(C)C)c5c4)n3)nc2)CC1 [abemaciclib] | 0.212
7 | C=CCn1c(=O)c2cnc(Nc3ccc(N4CCN(C)CC4)cc3)nc2n1-c1cccc(C(C)(C)O)n1 [adavosertib] | 0.225

Same assay, conditions: 10 µM; days in culture: 82

Row | Structure (SMILES) | CTG-3D luminescence at 96 h
8 | CC(C)(C(=O)NCC(F)(F)C(F)(F)F)C(=O)N[C@@H]1C(=O)Nc2ccccc2-c2ccccc21 | 3.03
9 | CCN(c1cc(C#CCN2CCOCC2)cc(C(=O)NCc2c(C)cc(C)[nH]c2=O)c1C)[C@H]1CC[C@H](N(C)CCOC)CC1 | 3.46
10 | NC(=O)Nc1cc(-c2cccc(F)c2)sc1C(=O)N[C@H]1CCCNC1 [AZD7762] | 0.623
11 | O=C(/C=C/c1cccnc1)NCCCCC1CCN(C(=O)c2ccccc2)CC1 [FK866] | 0.0327
12 | CCc1c2c(nc3ccc(O)cc13)-c1cc3c(c(=O)n1C2)COC(=O)[C@]3(O)CC [SN-38] | 0.0317
13 | CCN1CCN(Cc2ccc(Nc3ncc(F)c(-c4cc(F)c5nc(C)n(C(C)C)c5c4)n3)nc2)CC1 [abemaciclib] | 0.0326
14 | C=CCn1c(=O)c2cnc(Nc3ccc(N4CCN(C)CC4)cc3)nc2n1-c1cccc(C(C)(C)O)n1 [adavosertib] | 0.198

Same assay, conditions: 10 µM; days in culture: 91

Row | Structure (SMILES) | CTG-3D luminescence at 96 h
15 | CC(C)(C(=O)NCC(F)(F)C(F)(F)F)C(=O)N[C@@H]1C(=O)Nc2ccccc2-c2ccccc21 | 3.51
16 | CCN(c1cc(C#CCN2CCOCC2)cc(C(=O)NCc2c(C)cc(C)[nH]c2=O)c1C)[C@H]1CC[C@H](N(C)CCOC)CC1 | 2.58
17 | NC(=O)Nc1cc(-c2cccc(F)c2)sc1C(=O)N[C@H]1CCCNC1 [AZD7762] | 0.946
18 | O=C(/C=C/c1cccnc1)NCCCCC1CCN(C(=O)c2ccccc2)CC1 [FK866] | 0.025
19 | CCc1c2c(nc3ccc(O)cc13)-c1cc3c(c(=O)n1C2)COC(=O)[C@]3(O)CC [SN-38] | 0.0365
20 | CCN1CCN(Cc2ccc(Nc3ncc(F)c(-c4cc(F)c5nc(C)n(C(C)C)c5c4)n3)nc2)CC1 [abemaciclib] | 1.95
21 | C=CCn1c(=O)c2cnc(Nc3ccc(N4CCN(C)CC4)cc3)nc2n1-c1cccc(C(C)(C)O)n1 [adavosertib] | 0.274

Same assay, conditions: 10 µM; days in culture: 191

Row | Structure (SMILES) | CTG-3D luminescence at 96 h
22 | CC(C)(C(=O)NCC(F)(F)C(F)(F)F)C(=O)N[C@@H]1C(=O)Nc2ccccc2-c2ccccc21 | 2.26
23 | CCN(c1cc(C#CCN2CCOCC2)cc(C(=O)NCc2c(C)cc(C)[nH]c2=O)c1C)[C@H]1CC[C@H](N(C)CCOC)CC1 | 3.62
24 | NC(=O)Nc1cc(-c2cccc(F)c2)sc1C(=O)N[C@H]1CCCNC1 [AZD7762] | 0.525
25 | O=C(/C=C/c1cccnc1)NCCCCC1CCN(C(=O)c2ccccc2)CC1 [FK866] | 0.0599
26 | CCc1c2c(nc3ccc(O)cc13)-c1cc3c(c(=O)n1C2)COC(=O)[C@]3(O)CC [SN-38] | 0.0269
27 | CCN1CCN(Cc2ccc(Nc3ncc(F)c(-c4cc(F)c5nc(C)n(C(C)C)c5c4)n3)nc2)CC1 [abemaciclib] | 0.748
28 | C=CCn1c(=O)c2cnc(Nc3ccc(N4CCN(C)CC4)cc3)nc2n1-c1cccc(C(C)(C)O)n1 [adavosertib] | 0.247

Same assay, conditions: 10 µM; days in culture: 209

Row | Structure (SMILES) | CTG-3D luminescence at 96 h
29 | CC(C)(C(=O)NCC(F)(F)C(F)(F)F)C(=O)N[C@@H]1C(=O)Nc2ccccc2-c2ccccc21 | 1.91
30 | CCN(c1cc(C#CCN2CCOCC2)cc(C(=O)NCc2c(C)cc(C)[nH]c2=O)c1C)[C@H]1CC[C@H](N(C)CCOC)CC1 | 2.64
31 | NC(=O)Nc1cc(-c2cccc(F)c2)sc1C(=O)N[C@H]1CCCNC1 [AZD7762] | 0.332
32 | O=C(/C=C/c1cccnc1)NCCCCC1CCN(C(=O)c2ccccc2)CC1 [FK866] | 0.0272
33 | CCc1c2c(nc3ccc(O)cc13)-c1cc3c(c(=O)n1C2)COC(=O)[C@]3(O)CC [SN-38] | 0.0238
34 | CCN1CCN(Cc2ccc(Nc3ncc(F)c(-c4cc(F)c5nc(C)n(C(C)C)c5c4)n3)nc2)CC1 [abemaciclib] | 0.0253
35 | C=CCn1c(=O)c2cnc(Nc3ccc(N4CCN(C)CC4)cc3)nc2n1-c1cccc(C(C)(C)O)n1 [adavosertib] | 0.217

Same assay, conditions: 10 µM; days in culture: 227

Row | Structure (SMILES) | CTG-3D luminescence at 96 h
36 | CC(C)(C(=O)NCC(F)(F)C(F)(F)F)C(=O)N[C@@H]1C(=O)Nc2ccccc2-c2ccccc21 | 5.63
37 | CCN(c1cc(C#CCN2CCOCC2)cc(C(=O)NCc2c(C)cc(C)[nH]c2=O)c1C)[C@H]1CC[C@H](N(C)CCOC)CC1 | 5.77
38 | NC(=O)Nc1cc(-c2cccc(F)c2)sc1C(=O)N[C@H]1CCCNC1 [AZD7762] | 0.595
39 | O=C(/C=C/c1cccnc1)NCCCCC1CCN(C(=O)c2ccccc2)CC1 [FK866] | 0.0434
40 | CCc1c2c(nc3ccc(O)cc13)-c1cc3c(c(=O)n1C2)COC(=O)[C@]3(O)CC [SN-38] | 0.0608
41 | CCN1CCN(Cc2ccc(Nc3ncc(F)c(-c4cc(F)c5nc(C)n(C(C)C)c5c4)n3)nc2)CC1 [abemaciclib] | 0.0659
42 | C=CCn1c(=O)c2cnc(Nc3ccc(N4CCN(C)CC4)cc3)nc2n1-c1cccc(C(C)(C)O)n1 [adavosertib] | 0.312

Same assay, conditions: 100 µM; days in culture: 62

Row | Structure (SMILES) | CTG-3D luminescence at 96 h
43 | CC(C)(C(=O)NCC(F)(F)C(F)(F)F)C(=O)N[C@@H]1C(=O)Nc2ccccc2-c2ccccc21 | 2.47
44 | CCN(c1cc(C#CCN2CCOCC2)cc(C(=O)NCc2c(C)cc(C)[nH]c2=O)c1C)[C@H]1CC[C@H](N(C)CCOC)CC1 | 3.84
45 | NC(=O)Nc1cc(-c2cccc(F)c2)sc1C(=O)N[C@H]1CCCNC1 [AZD7762] | 0.00339
46 | O=C(/C=C/c1cccnc1)NCCCCC1CCN(C(=O)c2ccccc2)CC1 [FK866] | 0.0284
47 | CCc1c2c(nc3ccc(O)cc13)-c1cc3c(c(=O)n1C2)COC(=O)[C@]3(O)CC [SN-38] | 0.0217
48 | CCN1CCN(Cc2ccc(Nc3ncc(F)c(-c4cc(F)c5nc(C)n(C(C)C)c5c4)n3)nc2)CC1 [abemaciclib] | 0.0177
49 | C=CCn1c(=O)c2cnc(Nc3ccc(N4CCN(C)CC4)cc3)nc2n1-c1cccc(C(C)(C)O)n1 [adavosertib] | 0.324

Same assay, conditions: 100 µM; days in culture: 82

Row | Structure (SMILES) | CTG-3D luminescence at 96 h
50 | CC(C)(C(=O)NCC(F)(F)C(F)(F)F)C(=O)N[C@@H]1C(=O)Nc2ccccc2-c2ccccc21 | 1.34
51 | CCN(c1cc(C#CCN2CCOCC2)cc(C(=O)NCc2c(C)cc(C)[nH]c2=O)c1C)[C@H]1CC[C@H](N(C)CCOC)CC1 | 2.82
52 | NC(=O)Nc1cc(-c2cccc(F)c2)sc1C(=O)N[C@H]1CCCNC1 [AZD7762] | 0.00321
53 | O=C(/C=C/c1cccnc1)NCCCCC1CCN(C(=O)c2ccccc2)CC1 [FK866] | 0.0409
54 | CCc1c2c(nc3ccc(O)cc13)-c1cc3c(c(=O)n1C2)COC(=O)[C@]3(O)CC [SN-38] | 0.0208
55 | CCN1CCN(Cc2ccc(Nc3ncc(F)c(-c4cc(F)c5nc(C)n(C(C)C)c5c4)n3)nc2)CC1 [abemaciclib] | 0.0147
56 | C=CCn1c(=O)c2cnc(Nc3ccc(N4CCN(C)CC4)cc3)nc2n1-c1cccc(C(C)(C)O)n1 [adavosertib] | 0.134

Same assay, conditions: 100 µM; days in culture: 91

Row | Structure (SMILES) | CTG-3D luminescence at 96 h
57 | CC(C)(C(=O)NCC(F)(F)C(F)(F)F)C(=O)N[C@@H]1C(=O)Nc2ccccc2-c2ccccc21 | 2.15
58 | CCN(c1cc(C#CCN2CCOCC2)cc(C(=O)NCc2c(C)cc(C)[nH]c2=O)c1C)[C@H]1CC[C@H](N(C)CCOC)CC1 | 2.11
59 | NC(=O)Nc1cc(-c2cccc(F)c2)sc1C(=O)N[C@H]1CCCNC1 [AZD7762] | 0.00426
60 | O=C(/C=C/c1cccnc1)NCCCCC1CCN(C(=O)c2ccccc2)CC1 [FK866] | 0.0475
61 | CCc1c2c(nc3ccc(O)cc13)-c1cc3c(c(=O)n1C2)COC(=O)[C@]3(O)CC [SN-38] | 0.0217
62 | CCN1CCN(Cc2ccc(Nc3ncc(F)c(-c4cc(F)c5nc(C)n(C(C)C)c5c4)n3)nc2)CC1 [abemaciclib] | 0.0268
63 | C=CCn1c(=O)c2cnc(Nc3ccc(N4CCN(C)CC4)cc3)nc2n1-c1cccc(C(C)(C)O)n1 [adavosertib] | 0.495
